Reference: paper PMC7074166, “Screening for Small Molecule Modulators of Trypanosoma brucei Hsp70 Chaperone Activity Based upon Alcyonarian Coral-Derived Natural Products” (Marine Drugs, 2020)
Where two headings read alike, the source gives them in different places.

What was measured:
[1] = test system: HeLa (human cervix adenocarcinoma) cells; test: Resazurin-based cytotoxicity assay on a mammalian cell line; details: 20 μM, Figure S2
Protocol: HeLa cells were grown and maintained in a culture medium comprised of Dulbecco’s Modified Eagle’s Medium (DMEM) with 5 mM L-glutamine (Lonza, Basel, Switzerland), supplemented with 10% (v/v) heat inactivated foetal bovine serum and antibiotics (penicillin/streptomycin/fungizone-PSF) in a humidified chamber at 37 °C with an atmosphere of 5% CO2. To carry out passaging of cells, cultures were treated with 1% trypsin (w/v) to lift cells, which were then washed in 1 × phosphate buffered saline (PBS) before being re-seeded into culture flasks. For assessment of the cytotoxic effects, the small molecules were added to HeLa cells at a fixed concentration of 20 μM. After an incubation period of 24 h, the number of cells surviving drug exposure were determined using a resazurin-based cytotoxicity assay. The resazurin-based cytotoxicity assay was conducted as previously mentioned. Results were expressed as % cell—the resorufin fluorescence in small molecule-treated wells relative to untreated controls. Assessment of each small molecule was conducted in duplicate, with error bars representing standard deviation (SD).

TbHsp70.4 / Tbj2 = test: Tbj2-stimulated ATPase activity assay, TbHsp70.4; assay type: biochemical, Trypanosoma brucei; details: TbHsp70.4, 150 μM, Figure 5B
Protocol: (§1) The determination of the ATPase activity of the Hsp70 proteins was performed using the high throughput colorimetric ATPase assay kit (Innova Biosciences, Cambridge, UK). This method enables the quantification of the inorganic phosphate (Pi) released from ATP hydrolysis by an enzyme. Briefly, the molecular chaperones were prepared in ATPase assay buffer (100 mM Tris-HCl, 7.5, 2 mM MgCl2, 50 mM KCl, 0.5 mM DTT) and incubated with ATP (0–2 mM) for 1 h at 37 °C. […] The samples containing Pi hydrolysed from ATP were incubated with the PiColorLock™ solution, which is a malachite green dye solution that in the presence of Pi changes absorbance due to generation of molybdate-phosphate complexes. The absorbance was measured at 595 nm using a Powerwave 96-well plate reader (BioTek Instruments, Inc., Winooski, VT, USA), and absorbance values were converted to phosphate concentrations using a standard curve of absorbance vs. phosphate concentration based on a set of Pi standards provided by the supplier assayed along with the samples. All samples were corrected for spontaneous breakdown of ATP observed in a control experiment in the absence of protein. The trypanosomal and human Hsp70s were used at 0.8 μM, and the J-proteins were used at 0.4 μM. An initial screen of the modulatory effects of the compounds on the ATPase activity of the Hsp70s was conducted using 300 μM of the compounds. Compounds identified to have a modulatory effect on the basal and J-protein-stimulated ATPase activity of Hsp70 were used at varying concentrations. The modulatory effect of the selected compounds on the basal and J-protein stimulated ATPase activity of the T. brucei Hsp70s was represented as fold change with the basal and J-protein stimulated ATPase activity of the Hsp70s taken as 1 respectively. These experiments were conducted on three independently purified batches of proteins, but due to limited availability of the selected compounds, each assay was conducted in duplicate on each batch of protein. In control reactions to evaluate the effect of DMSO on basal and J-protein stimulated ATPase activity of the Hsp70s, the solvent was added to a final concentration of 1% (v/v) in the assay. The assays were performed in duplicate on three independently purified batches of proteins.

TbHsp70 / Tbj2 = molecular target: T1, TbHsp70 / Tbj2 (Trypanosoma brucei brucei, UniProt P11145); test: Tbj2-stimulated ATPase activity assay, TbHsp70; assay type: biochemical; details: TbHsp70, 150 μM, Figure 5A
T1 construct: His-tag; made in house; host or cells: Escherichia coli (Tbj2: E. coli BL21 (DE3))
Protocol: as §1

[2] = test system: bloodstream form T. b. brucei parasites; test: Resazurin-based anti-trypanosomal assay on bloodstream form T. b. brucei parasites; assay type: cell-based, Trypanosoma brucei brucei; details: for IC50: Trypanosoma brucei
Protocol: Bloodstream form T. b. brucei Lister 927 variant 221 strain parasites were cultured in filter sterilized complete Iscoves Modified Dulbeccos Media (IMDM) based HM1-9 medium (IMDM base powder, […] sodium bicarbonate, 1 mM hypoxanthine, 1 mM sodium pyruvate, 0.16 mM thymidine, 0.05 mM bathocuprone sulphate acid, 10% (v/v) heat inactivated foetal bovine serum, 1.5 mM L-cysteine, 0.2 mM β-mercaptoethanol, pH 7.5) in a humidified chamber at 37 °C with an atmosphere of 5% CO2. Parasite growth was monitored using a Neubauer haemocytometer to count the cell number, after which cells were diluted, according to their density, in the described pre-warmed media.
All compounds of interest were resuspended to stocks of 30 mM in DMSO and stored at −80 °C prior to use in in vitro experiments. For assessment of anti-trypanosomal activity, compounds were added to in vitro cultures of bloodstream form T. b. brucei parasites (1 × 10^5 cells/mL) in 96-well plates at a fixed concentration of 20 μM. After an incubation period of 48 h, the number of parasites surviving drug exposure were determined using a resazurin-based cytotoxicity assay. Resazurin is an oxidation–reduction sensitive dye that is reduced by living cells to resorufin. Resorufin is a fluorophore (Excitation560/Emission590) and thus was quantified in a multi-well fluorescence plate reader. Results are expressed as % parasite viability—the resorufin fluorescence in small molecule-treated wells relative to untreated controls. Assessment of each small molecule was conducted in duplicate, with error bars representing standard deviation (SD). […] The compounds were added to in vitro cultures of bloodstream form T. b. brucei parasites (1 × 10^5 cells/mL) in 96-well plates in a 3-fold dilution series with 100 μM as the highest concentration. After an incubation period of 48 h, the number of parasites surviving drug exposure were determined as previously mentioned. The % parasite viability was determined as previously mentioned. The IC50 (the concentration of compound required to decrease cell viability of T. b. brucei parasites by 50% compared to those grown in the absence of the compound) values for each of the compounds were determined from a dose–response curve by non-linear regression generated using GraphPad Prism® (v. 7.0; San Diego, CA, USA) software. For comparative purposes, pentamidine at a fixed concentration of 1 μM was employed as a drug standard.

[3] = T. b. brucei parasites, stated as bound, read-out: IC50 values
[4] = Table 1, T. b. brucei parasites cultured in vitro, 48 h, dose-response, read-out: IC50/μM
[5] = Table S1, 48 select compounds, T. b. brucei, 48 h, read-out: IC50/

T1 sequence (P11145 whole entry): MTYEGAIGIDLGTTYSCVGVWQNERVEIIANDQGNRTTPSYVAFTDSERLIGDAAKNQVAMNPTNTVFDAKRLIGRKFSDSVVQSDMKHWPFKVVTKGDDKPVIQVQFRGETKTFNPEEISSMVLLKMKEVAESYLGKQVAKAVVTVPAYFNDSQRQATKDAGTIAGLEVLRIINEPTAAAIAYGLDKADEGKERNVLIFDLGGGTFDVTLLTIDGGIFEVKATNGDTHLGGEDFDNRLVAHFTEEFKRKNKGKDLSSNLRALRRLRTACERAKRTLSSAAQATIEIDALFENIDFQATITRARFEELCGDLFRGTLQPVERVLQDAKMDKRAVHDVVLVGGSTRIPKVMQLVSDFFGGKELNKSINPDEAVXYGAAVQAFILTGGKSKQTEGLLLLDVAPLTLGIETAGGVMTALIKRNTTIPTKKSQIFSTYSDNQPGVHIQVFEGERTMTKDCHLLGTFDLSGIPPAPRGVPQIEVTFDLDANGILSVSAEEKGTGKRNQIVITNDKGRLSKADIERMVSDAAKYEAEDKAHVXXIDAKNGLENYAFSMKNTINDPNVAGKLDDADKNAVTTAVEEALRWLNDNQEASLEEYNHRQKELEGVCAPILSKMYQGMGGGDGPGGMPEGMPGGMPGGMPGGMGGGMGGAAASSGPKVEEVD

CC(C)=CCC/C(C)=C/Cn1cnc(=N)c2ncn(C/C=C(\C)CCC=C(C)C)c21 [Compound 5, 3,9-bis((E)-3,7-dimethylocta-2,6-dien-1-yl)-3,9-dihydro-6H-purin-6-imine]
toxicity to HeLa cells [1]: toxic

CC(C)=CCC/C(C)=C/Cn1cnc2c1c(=O)[nH]c(=O)n2C/C=C(\C)CCC=C(C)C [Compound 27, 3,7-Bis((E)-3,7-dimethylocta-2,6-dien-1-yl)-3,7-dihydro-1H-purine-2,6-dione]
effect of order of addition (compound vs Tbj2) on inhibition of J-stimulated ATPase activity (TbHsp70.4 / Tbj2): no significant difference | effect of order of addition (compound vs Tbj2) on inhibition of J-stimulated ATPase activity (TbHsp70 / Tbj2): no significant difference | IC50 [2, 3]: < 7 µM | IC50 [2, 4]: 2 µM

CC(C)=CCC/C(C)=C/CCC(C)=CCn1cnc2c1c(=O)[nH]c(=O)n2CC=C(C)CC/C=C(\C)CCC=C(C)C [Compound 28, 3,7-Bis((6E)-3,7,11-trimethyldodeca-2,6,10-trien-1-yl)-3,7-dihydro-1H-purine-2,6-dione]
effect of order of addition (compound vs Tbj2) on inhibition of J-stimulated ATPase activity (TbHsp70.4 / Tbj2): no significant difference | effect of order of addition (compound vs Tbj2) on inhibition of J-stimulated ATPase activity (TbHsp70 / Tbj2): no significant difference | IC50 [2, 3]: < 7 µM | IC50 [2, 4]: 1.2 µM | IC50 [2, 5]: 1.15 µM

CC(C)=CCC/C(C)=C/CC/C(C)=C/Cn1cnc2c1c(=O)[nH]c(=O)n2C [Compound 31, 3-methyl-7-((2E,6E)-3,7,11-trimethyldodeca-2,6,10-trien-1-yl)-3,7-dihydro-1H-purine-2,6-dione]
effect of order of addition (compound vs Tbj2) on inhibition of J-stimulated ATPase activity (TbHsp70.4 / Tbj2): no significant difference | effect of order of addition (compound vs Tbj2) on inhibition of J-stimulated ATPase activity (TbHsp70 / Tbj2): no significant difference | IC50 [2, 3]: < 7 µM | IC50 [2, 4]: 1.9 µM | IC50 [2, 5]: 1.91 µM

CC(C)=CCC/C(C)=C/Cn1ccc(=N)n(C/C=C(\C)CCC=C(C)C)c1=O [Compound 61, 1,3-bis((E)-3,7-dimethylocta-2,6-dien-1-yl)-4-imino-3,4-dihydropyrimidin-2(1H)-one]
toxicity to HeLa cells [1]: toxic

CC(C)=CCC/C(C)=C/CCC(C)=CCn1ccc(=N)n(CC=C(C)CC/C=C(\C)CCC=C(C)C)c1=O [Compound 63, 4-imino-1,3-bis((6E)-3,7,11-trimethyldodeca-2,6,10-trien-1-yl)-3,4-dihydropyrimidin-2(1H)-one]
effect of order of addition (compound vs Tbj2) on inhibition of J-stimulated ATPase activity (TbHsp70.4 / Tbj2): no significant difference | effect of order of addition (compound vs Tbj2) on inhibition of J-stimulated ATPase activity (TbHsp70 / Tbj2): no significant difference | IC50 [2, 3]: < 7 µM | IC50 [2, 4]: 2.1 µM | IC50 [2, 5]: 2.05 µM

CC(C)=CCC/C(C)=C/CC/C(C)=C/CC/C(C)=C/CN1C(=O)c2ccccc2C1=O [Compound 69, 2-((2E,6E,10E)-3,7,11,15-Tetramethylhexadeca-2,6,10,14-tetraen-1-yl)isoindoline-1,3-dione]
IC50 [2, 4]: 9.2 µM | IC50 [2, 5]: 9.16 µM

CC(C)=CCC/C(C)=C/CCC(C)=CCn1ccnc1 [Compound 71, 1-((6E)-3,7,11-Trimethyldodeca-2,6,10-trien-1-yl)-1H-imidazole]
IC50 [2, 4]: 26.8 µM | IC50 [2, 5]: 26.8 µM

CC(C)=CCC/C(C)=C/CC/C(C)=C/CC/C(C)=C/Cn1ccnc1 [Compound 72, 1-((2E,6E,10E)-3,7,11,15-Tetramethylhexadeca-2,6,10,14-tetraen-1-yl)-1H-imidazole]
IC50 [2, 4]: 3.4 µM | IC50 [2, 5]: 3.42 µM

CC(C)=CCC/C(C)=C/CC/C(C)=C\CNC=O [Compound 74, N-((2Z,6E)-3,7,11-Trimethyldodeca-2,6,10-trien-1-yl)formamide]
IC50 [2, 4]: 27.3 µM | IC50 [2, 5]: 27.3 µM

CC(C)=CCC/C(C)=C/CCC(C)=CCNC=O [Compound 75, N-((6E)-3,7,11-trimethyldodeca-2,6,10-trien-1-yl)formamide]
anti-trypanosomal activity (SAR statement) ([2]; T. b. brucei, screen at 20 μM): inactive

CC(C)=CCC/C(C)=C/CC/C(C)=C/CC/C(C)=C\CNC=O [Compound 76, N-((2Z,6E,10E)-3,7,11,15-Tetramethylhexadeca-2,6,10,14-tetraen-1-yl)formamide]
IC50 [2, 4]: 11 µM | IC50 [2, 5]: 11 µM

CC(C)=CCC/C(C)=C/CC/C(C)=C/CC/C(C)=C/CNC=O [Compound 77, N-((2E,6E,10E)-3,7,11,15-tetramethylhexadeca-2,6,10,14-tetraen-1-yl)formamide]
IC50 [2, 4]: 41.8 µM | IC50 [2, 5]: 41.8 µM

CC(C)=CCC/C(C)=C/CC/C(C)=C/CC/C(C)=C/CN(C)C=O [Compound 80, N-Methyl-N-((2E,6E,10E)-3,7,11,15-tetramethylhexadeca-2,6,10,14-tetraen-1-yl)formamide]
IC50 [2, 4]: 41.2 µM | IC50 [2, 5]: 41.2 µM

CC(=O)NC/C=C(/C)CC/C=C(\C)CCC=C(C)C [Compound 82, N-((2Z,6E)-3,7,11-Trimethyldodeca-2,6,10-trien-1-yl)acetamide]
IC50 [2, 4]: 4.5 µM | IC50 [2, 5]: 4.49 µM

CC(=O)NC/C=C(\C)CC/C=C(\C)CCC=C(C)C [Compound 83, N-((2E,6E)-3,7,11-trimethyldodeca-2,6,10-trien-1-yl)acetamide]
IC50 [2, 4]: 21.5 µM | IC50 [2, 5]: 21.5 µM

CC(=O)NC/C=C(/C)CC/C=C(\C)CC/C=C(\C)CCC=C(C)C [Compound 84, N-((2Z,6E,10E)-3,7,11,15-Tetramethylhexadeca-2,6,10,14-tetraen-1-yl)acetamide]
IC50 [2, 4]: 2.2 µM | IC50 [2, 5]: 2.17 µM

CC(=O)NC/C=C(\C)CC/C=C(\C)CC/C=C(\C)CCC=C(C)C [Compound 85, N-((2E,6E,10E)-3,7,11,15-tetramethylhexadeca-2,6,10,14-tetraen-1-yl)acetamide]
IC50 [2, 4]: 3.1 µM | IC50 [2, 5]: 3.14 µM

CC(=O)N(C)C/C=C(\C)CC/C=C(\C)CC/C=C(\C)CCC=C(C)C [Compound 88, N-Methyl-N-((2E,6E,10E)-3,7,11,15-tetramethylhexadeca-2,6,10,14-tetraen-1-yl)acetamide]
IC50 [2, 4]: 38.4 µM

N=C(N)c1ccc(OCCCCCOc2ccc(C(=N)N)cc2)cc1 [pentamidine, reference compound]
IC50 ([2]; T. b. brucei parasites cultured in vitro, positive control, read-out: IC50 of drug standard): 0.0053 µM
